Measurements reported in PubChem BioAssay (NCI).
Where “and” joins values, the source holds several entries; their conditions need not be identical. Identical values can stand only once.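 Compound exposure: 48 hours, 5 concentrations, 96-well plates. The concentration for 50% growth inhibition is given as GI50. TGI: concentration producing complete growth inhibition.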

Legend:
Test in all cases: NCI-60 cell line screen, 48 h
M14 melanoma = test system: M14 melanoma
MCF7 breast = test system: MCF7 breast
NCI-H460 lung = test system: NCI-H460 lung
CCRF-CEM leukemia = test system: CCRF-CEM leukemia
NCI-H23 lung = test system: NCI-H23 lung
UO-31 renal = test system: UO-31 renal
NCI/ADR-RES ovarian = test system: NCI/ADR-RES ovarian
BT-549 breast = test system: BT-549 breast

| SMILES | GI50 (M14 melanoma) [µM] | TGI (M14 melanoma) [µM] | GI50 (MCF7 breast) [µM] | TGI (MCF7 breast) [µM] | GI50 (NCI-H460 lung) | TGI (NCI-H460 lung) [µM] | GI50 (CCRF-CEM leukemia) | TGI (CCRF-CEM leukemia) [µM] | GI50 (NCI-H23 lung) | TGI (NCI-H23 lung) [µM] | GI50 (UO-31 renal) [nM] | TGI (UO-31 renal) [µM] | GI50 (NCI/ADR-RES ovarian) | TGI (NCI/ADR-RES ovarian) [µM] | GI50 (BT-549 breast) | TGI (BT-549 breast) [µM] |
| --- | --- | --- | --- | --- | --- | --- | --- | --- | --- | --- | --- | --- | --- | --- | --- | --- |
| COc1cc(CCNC(=O)OC(C)(C)C)c2c(c1OC)SSSSS2 | 4.13 | 50.7 | 1.77 | 5.06 | 2040 nM | 4.81 | 5340 nM | 65.2 | 3.56 µM | 20.3 | 2180 | 5.47 | 3.64 µM | 70.2 | 2540 nM | 5.06 |
| CNC(=O)c1cccc(C#Cc2cncnc2Nc2ccc(OCc3cccc(F)c3)c(Cl)c2)c1 | 10.7 | > 25 | 4.61 | 12.5 | 5040 nM | 12.9 | > 25000 nM | > 25 | 7.5 µM | 24.2 | 1580 | > 25 | 6.94 µM | > 25 | 8560 nM | > 25 |
| COc1cc2nc3cc([N+](=O)[O-])ccc3c(NCCNCC(C)O)c2cc1OC (centres undefined) | 1.25 | 2.96 | 0.332 | 1.57 | 366 nM | 1.6 | 340 nM | 3.13 | 0.554 µM | 3.07 | 1670 | 5.84 | 7.42 µM | 23.6 | 1750 nM | 3.9 |
| COc1ccc2nc3cccc([N+](=O)[O-])c3c(NC(C)CN(C)C)c2c1 (centres undefined) | 1.41 | 2.8 | 1.17 | 4.36 | 510 nM | 3.73 | 2210 nM | 7.62 | 2.1 µM | 5.33 | 1700 | 3.62 | 2.92 µM | 13 | 2860 nM | 6.74 |
| CC(=O)N[C@@H](Cc1ccc(OP(=O)(O)O)cc1)C(=O)N[C@H]1CCC(=O)N2CCC[C@@H](C(=O)NCc3ccccc3)N2C1=O | > 25 | > 25 | > 25 | > 25 | > 25000 nM | > 25 | > 25000 nM | > 25 | > 25 µM | > 25 | > 25000 | > 25 | > 25 µM | > 25 | > 25000 nM | > 25 |
| C/C=C(\C)C(=O)O[C@H]1C=CC(=O)O[C@H]1COC(=O)[C@H](C)O | 7.51 | 23.1 | 3.4 | 14.1 | 10300 nM | 29.1 | – | – | 15.3 µM | 36.9 | 9790 | 25.5 | 12.1 µM | 32.6 | 9560 nM | 21.7 |
| CC(=O)OCCCC#CC#Cc1cccc(=O)o1 | 17.8 | 36.5 | 20.3 | 43.5 | 20000 nM | 42.2 | – | – | 15.8 µM | 33 | 3520 | > 100 | 39.6 µM | > 100 | 10600 nM | 26.6 |
| O=C(O)c1cn(C2CC2)c2cc(N3CCN(Cc4c(O)ccc5ccccc45)CC3)c(F)cc2c1=O | 3.95 | > 100 | 5.63 | > 100 | – | – | 20500 nM | > 100 | 4.63 µM | > 100 | 3710 | > 100 | 11.4 µM | > 100 | 3500 nM | 48.7 |
| COC(=O)[C@@H](C)C[C@H](Cc1ccccc1)NC(=O)c1csc([C@@H](C[C@H](C(C)C)N(C)C(=O)[C@@H](NC(=O)[C@H]2CCCN2C)C2CC2)OC(C)=O)n1 | – | – | – | > 25 | 2.38 nM and 2.5 nM | > 25 | 0.586 nM and 2.5 nM | > 25 | 0.00365 µM and 0.0025 µM | > 25 | – | > 25 | 0.276 µM and 0.262 µM | > 25 | 0.664 nM and < 2.5 nM | – |
| O=C(O)Cc1ccc(N=Nc2c(O)c(C(=O)O)cc3ccccc23)cc1 | – | > 100 | – | > 100 | – | > 100 | – | > 100 | – | – | – | > 100 | – | > 100 | – | > 100 |
| N#CC1=C(N)Oc2c(sc3c(Br)cccc23)C1c1ccc(Cl)cc1 (centres undefined) | 0.45 | 2.65 | 0.295 | 5.07 | – | – | 368 nM | 2.36 | 0.821 µM | 4.86 | 614 | 2.54 | 0.332 µM | 1.35 | 962 nM | 12.7 |
| C=C1C(=O)O[C@H]2[C@H]1CC/C(CNC(=O)/C=C/c1ccccc1F)=C\CC[C@@]1(C)O[C@@H]21 | 1.34 | 3.05 | – | – | 2360 nM | 6.19 | 416 nM | 2.92 | 1.88 µM | 4.42 | 1340 | 2.91 | 3.1 µM | 26.9 | 1480 nM | 3.45 |
| CN(C)c1ccccc1[CH2][Ga]([Cl])[CH2]c1ccccc1N(C)C | 1.3 | 2.85 | 0.954 | 2.67 | 1760 nM | 3.58 | 399 nM | 4.82 | 0.595 µM | 2.06 | – | – | 1.87 µM | 4.22 | 1830 nM | 3.29 |
| CN(C)CCNC(=O)c1ccc2oc3cc4ccccc4c(=O)n3c2c1 | 52 | > 100 | 64.1 | > 100 | 42200 nM | > 100 | – | – | 17.4 µM | 57.8 | 19600 | 47.5 | 37.4 µM | > 100 | 27400 nM | 66.2 |
| Nc1nn(C(=O)Nc2c(F)cccc2F)c2ccccc12 | 74.6 | > 100 | 60 | > 100 | 33400 nM | > 100 | – | – | 95.6 µM | > 100 | 18600 | > 100 | 56.5 µM | > 100 | 28800 nM | > 100 |
| Cc1c2c(nn1-c1ccc(S(=O)(=O)NC(=S)NC(=O)c3ccccc3)cc1)-c1ccccc1CC2 | > 100 | > 100 | 35.9 | > 100 | 45100 nM | > 100 | > 100000 nM | > 100 | 53.9 µM | > 100 | > 100000 | > 100 | > 100 µM | > 100 | – | – |
